The results in this text go back to patent US20090131527A1, “NOVEL ANTHRANILIC ACID DERIVATIVES AND CHLORIDE CHANNEL BLOCKING AGENT CONTAINING THE SAME” (Korea Institute of Science and Technology, priority 2007, published 2009).

The assay has as its target Cl− channel activated by Ca2+ (calcium ion-activated chloride channels) (Xenopus laevis, UniProt B5SVV6). Kind of assay: Two-electrode voltage clamp recording of Ca2+-activated chloride current in Xenopus Laevis eggs (ionomycin/thapsigargin treated). The assay is classed as cell-based. The note with it: for IC50: calcium ion-activated chloride channel current in Xenopus Laevis eggs, activated with 5 mM Ca2+, 15 s pretreatment with chemical; for inhibitory activity of calcium activated chloride channel current (in words): compared to the conventional anthranilic acid derivatives flufenamic acid and mefenamic acid / known inhibitors. How it is done:
The prepared eggs were treated with 10 μM ionomycin (Sigma) for 30 min.
An intracellular solution was prepared by adding 0.5 mM EGTA and 1 μM Chelerythrine (Sigma) into a 1 M KCl solution, which was filled in glass microelectrodes. One of the above prepared eggs was placed on the chamber and two electrodes were inserted into opposite sides of the egg while the recording solution was poured. Current was measured by performing two-electrode voltage clamp recording according to a protocol suitable for the purpose of the experiment.
In order to activate a Ca^2+-dependent chloride channel, 5 mM Ca^2+ was treated first to the above eggs for 5 seconds. After being washed with the above recording solution for 50 seconds, and pretreated with the chemicals in the below Table 1 (treated in the order of […]) for 15 seconds, the eggs were treated with 5 mM Ca^2+ and the above chemicals (same amount as above) to measure the inhibitory concentrations of each chemical by comparing the current measured with 5 mM Ca^2+.

Sequence of Cl− channel activated by Ca2+ (calcium ion-activated chloride channels) (B5SVV6 entry or part of it): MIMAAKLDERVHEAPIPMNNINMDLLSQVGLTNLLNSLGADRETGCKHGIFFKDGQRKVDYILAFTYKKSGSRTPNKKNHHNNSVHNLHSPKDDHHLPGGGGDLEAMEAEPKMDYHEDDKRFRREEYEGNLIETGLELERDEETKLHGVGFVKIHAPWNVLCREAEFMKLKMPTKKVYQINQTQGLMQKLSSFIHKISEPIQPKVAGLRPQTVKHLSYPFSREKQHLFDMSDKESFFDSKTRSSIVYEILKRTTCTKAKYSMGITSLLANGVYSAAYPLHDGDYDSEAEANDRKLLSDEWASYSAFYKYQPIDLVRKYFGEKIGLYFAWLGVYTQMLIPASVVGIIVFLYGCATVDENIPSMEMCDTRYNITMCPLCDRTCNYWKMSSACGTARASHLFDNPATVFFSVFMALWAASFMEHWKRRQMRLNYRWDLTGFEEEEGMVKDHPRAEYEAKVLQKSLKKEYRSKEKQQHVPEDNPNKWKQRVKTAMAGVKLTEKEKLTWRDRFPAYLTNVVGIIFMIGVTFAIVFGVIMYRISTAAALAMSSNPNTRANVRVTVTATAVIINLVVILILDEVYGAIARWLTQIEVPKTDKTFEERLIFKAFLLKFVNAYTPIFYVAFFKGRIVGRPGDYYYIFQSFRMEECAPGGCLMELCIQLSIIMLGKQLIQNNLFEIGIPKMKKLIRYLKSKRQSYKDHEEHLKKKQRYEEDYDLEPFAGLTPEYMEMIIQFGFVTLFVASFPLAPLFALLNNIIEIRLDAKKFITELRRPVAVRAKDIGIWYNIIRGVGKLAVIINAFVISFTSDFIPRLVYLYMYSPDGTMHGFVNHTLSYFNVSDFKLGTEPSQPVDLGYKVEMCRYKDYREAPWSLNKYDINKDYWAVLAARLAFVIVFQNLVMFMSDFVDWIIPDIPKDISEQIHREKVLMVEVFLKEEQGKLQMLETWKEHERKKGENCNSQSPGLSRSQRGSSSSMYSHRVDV

As to `O=S(=O)(O)c1cc(N=C=S)ccc1C=Cc1ccc(N=C=S)cc1S(=O)(=O)O` [DIDS, disodium 4,4′-diisothiocyano-2,2′-stilbenedisulphonic acid, reference compound], the IC50 was 10.7 µM.
Regarding `O=C(O)c1ccccc1Nc1ccccc1` [N-Phenylanthranilic acid, reference compound], the IC50 stood at 88.1 µM.
Regarding `O=C(O)c1ccccc1Nc1cccc([N+](=O)[O-])c1` [N-(3-Nitrophenyl)anthranilic acid], the IC50 worked out at 32.1 µM and the “inhibitory activity of calcium activated chloride channel current (in words)” value is on record as “notably high inhibitory activity”.
The matching figures for `O=C(O)c1ccccc1Nc1ccc(Cl)cc1` [N-(4-Chlorophenyl)anthranilic acid]: 11.3 µM and “notably high inhibitory activity”.
For the molecule `O=C(O)c1cc([N+](=O)[O-])ccc1Nc1ccc([N+](=O)[O-])cc1` [5-Nitro-N-(4-nitrophenyl)anthranilic acid], the IC50 amounted to 15.4 µM and the “inhibitory activity of calcium activated chloride channel current (in words)” value was “notably high inhibitory activity”.
For the molecule `O=C(O)c1ccccc1Nc1ccccc1C(F)(F)F` [N-(2-Trifluoromethylphenyl)anthranilic acid], the IC50 is 29.5 µM and the “inhibitory activity of calcium activated chloride channel current (in words)” value was “notably high inhibitory activity”.
`CC(C)(C)c1ccc(Nc2ccccc2C(=O)O)cc1` [N-(4-tert-Butylphenyl)anthranilic acid]: the IC50 came to 22.9 µM and the “inhibitory activity of calcium activated chloride channel current (in words)” value is reported as “notably high inhibitory activity”.
As to `Cc1ccc(Nc2ccccc2C(=O)O)cc1` [N-(4-Methylphenyl)anthranilic acid], the IC50 is 55.3 µM.
Turning to `CC(C)c1ccc(Nc2ccccc2C(=O)O)cc1` [N-(4-Isopropylphenyl)anthranilic acid], the IC50 worked out at 17 µM.
Regarding `COc1ccc(Nc2ccccc2C(=O)O)cc1` [N-(4-Methoxyphenyl)anthranilic acid], the IC50 stood at 102 µM.
Take `O=C(O)c1ccccc1Nc1ccc(C(F)(F)F)cc1` [N-(4-Trifluoromethylphenyl)anthranilic acid]: the IC50 amounted to 6 µM and the “inhibitory activity of calcium activated chloride channel current (in words)” value was “notably high inhibitory activity”.
Take `O=C(O)c1ccccc1Nc1cccc(C(F)(F)F)c1` [Flufenamic acid, reference compound]: the IC50 worked out at 35.4 µM.
In the case of `O=C(O)c1cccnc1Nc1cccc(C(F)(F)F)c1` [Niflumic acid, reference compound], the IC50 is 37.3 µM.
The same measure, in the same setting: the value for `O=C(O)c1c2ccccc2cc2ccccc12` [9-AC, 9-anthracene carboxylic acid, reference compound] was 94.3 µM.
Same read-out and setting: the value for `O=C(O)c1cc([N+](=O)[O-])ccc1NCCCc1ccccc1` [NPPB, 5-nitro-2-(3-phenylpropylamino)benzoic acid, reference compound] was 32.3 µM.
Consider `O=C(O)c1ccccc1Nc1ccc(F)cc1` [N-(4-Fluorophenyl)anthranilic acid], for which the IC50 turned out to be 63.1 µM.
`O=C(O)c1ccccc1Nc1ccc([N+](=O)[O-])cc1` [N-(4-Nitrophenyl)anthranilic acid]: the IC50 was 17.8 µM and the “inhibitory activity of calcium activated chloride channel current (in words)” value is listed as “notably high inhibitory activity”.
Consider `O=C(O)c1ccccc1Nc1ccc(F)c(C(F)(F)F)c1` [N-(4-Fluoro-3-trifluoromethylphenyl)anthranilic acid], for which the 50% inhibitory concentration (IC50) amounted to 14.7 µM and the “inhibitory activity of calcium activated chloride channel current (in words)” value is on record as “notably high inhibitory activity”.
Take `Cc1cccc(Nc2ccccc2C(=O)O)c1C` [Mefenamic acid, reference compound]: the IC50 was found to be 44.5 µM.
